These results are taken from PubChem BioAssay (NCI).

“And” between values parts separate entries of the source, which are not always exact repeats. Equal values may be shown once.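 Cultured in 96-well plates, cells were exposed to test compound for 48 hours across five concentrations. Abbreviation: GI50, concentration required for 50% inhibition of growth. At the TGI there is no net growth.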

Some test systems named below: ACHN renal; UACC-257 melanoma; OVCAR-8 ovarian; OVCAR-3 ovarian; NCI-H460 lung; TK-10 renal; SK-OV-3 ovarian; SF-539 CNS; HCT-15 colon; PC-3 prostate.
What all share (assay): NCI anticancer screen, dose series, 48 h

For `CCOC(=O)C1=C(C)N(NC(=O)Nc2ccccc2)C2(N)N(NC(=O)Nc3ccccc3)C(C)=C(C(=O)OCC)C12C(=O)OCC` (stereo not given), the TGI in the experiment with ACHN renal, in the experiment on UACC-257 melanoma, in the experiment on OVCAR-8 ovarian, with OVCAR-3 ovarian, with NCI-H460 lung and with TK-10 renal was more than 100 µM in each case. In addition, the values for the TGI in the experiment on SK-OV-3 ovarian, in the experiment with SF-539 CNS and in the experiment on HCT-15 colon were more than 100 µM, 53.4 µM and more than 100 µM, respectively.
With `C#Cc1cccc(Nc2nc3cc([N+](=O)[O-])ccc3nc2Nc2ccc(O)cc2)c1`, the GI50 with ACHN renal was 1.61 µM; in the experiment with UACC-257 melanoma, 2.09 µM; with PC-3 prostate, 1.65 µM; in the experiment with OVCAR-8 ovarian, 2.33 µM; in the experiment on OVCAR-3 ovarian, 1.87 µM; in the experiment with SK-OV-3 ovarian it was 2.34 µM. For the same compound, in the experiment on SF-539 CNS, the GI50 is 1.75 µM. The TGI came to 4.01 µM in the experiment with ACHN renal; 4.34 µM in the experiment with UACC-257 melanoma; 3.91 µM in the experiment with PC-3 prostate; 6.48 µM with OVCAR-8 ovarian; 4.14 µM with OVCAR-3 ovarian; 5.97 µM in the experiment on SK-OV-3 ovarian. This compound also came in with a TGI with SF-539 CNS of 3.29 µM.
`Cc1ccc(S(=O)(=O)N2CCC2c2ccccc2)cc1` (stereo not given): the TGI with ACHN renal, in the experiment on UACC-257 melanoma, in the experiment with OVCAR-8 ovarian, in the experiment with OVCAR-3 ovarian, with NCI-H460 lung and in the experiment with TK-10 renal was more than 100 µM each time. For the same compound, the TGI in the experiment on SK-OV-3 ovarian, in the experiment on SF-539 CNS and in the experiment on HCT-15 colon was more than 100 µM throughout.
With `C[C@@]1(O)CC[C@]2(C)C3CCCC3[C@H]12` (stereo not given in full), the TGI with ACHN renal, in the experiment with UACC-257 melanoma, in the experiment on OVCAR-8 ovarian, with OVCAR-3 ovarian, in the experiment on NCI-H460 lung and in the experiment on TK-10 renal was more than 100 µM in each case. Besides, the TGI with SK-OV-3 ovarian, in the experiment on SF-539 CNS and in the experiment with HCT-15 colon was more than 100 µM in each case.
On to `C=C(C)C12OC1[C@@]1(C)C(=CC2=O)CCC(O)[C@@H]1C` (stereo not given in full), for which the TGI with ACHN renal was 2.42 µM; in the experiment with UACC-257 melanoma, more than 100 µM; with PC-3 prostate it was 27.8 µM; in the experiment on OVCAR-8 ovarian it was 8.24 µM; in the experiment on OVCAR-3 ovarian, more than 100 µM; in the experiment with NCI-H460 lung, 11.4 µM. Moreover, the TGI in the experiment on TK-10 renal was more than 100 µM; with SF-539 CNS, 15.8 µM; in the experiment with HCT-15 colon, more than 100 µM.
As to `CC(=O)[O-].CC(=O)[O-].O=C(N/N=C/c1cc(Cl)cc(Cl)c1O)c1ccncc1.[Cu+2]`, the TGI with ACHN renal, in the experiment on UACC-257 melanoma, in the experiment on OVCAR-8 ovarian, in the experiment on OVCAR-3 ovarian, in the experiment on NCI-H460 lung and in the experiment with TK-10 renal was more than 100 µM throughout. For the same compound, the TGI with SK-OV-3 ovarian, in the experiment with SF-539 CNS and in the experiment with HCT-15 colon was more than 100 µM each time.
Take `Cn1cc(-c2cc3c(N4CCN(c5ncc([C@@](C)(N)c6ccc(F)cc6)cn5)CC4)ncnn3c2)cn1`: the GI50 with ACHN renal was 3.26 µM; with UACC-257 melanoma, 5 µM; with PC-3 prostate, 1.99 µM; in the experiment with OVCAR-8 ovarian, 4.11 µM; in the experiment on NCI-H460 lung it was 4.41 µM; with SF-539 CNS it was 1.6 µM. In the experiment on HCT-15 colon, the GI50 is 3.62 µM. Besides, the TGI in the experiment on ACHN renal, in the experiment with UACC-257 melanoma, with PC-3 prostate, in the experiment with OVCAR-8 ovarian, in the experiment with NCI-H460 lung and in the experiment with SF-539 CNS was more than 100 µM throughout. For the same compound, the TGI in the experiment on HCT-15 colon is more than 100 µM.
Take `Cc1[cH-]c(=O)n(-c2ccccc2)n1.[Au+].[Au].c1ccc([PH+](c2ccccc2)c2ccccc2)cc1.c1ccc([PH+](c2ccccc2)c2ccccc2)cc1`: the GI50 is 22.3 µM in the experiment with ACHN renal; 25.4 µM in the experiment with UACC-257 melanoma; 14.6 µM in the experiment on OVCAR-8 ovarian; 16.7 µM in the experiment with OVCAR-3 ovarian; 14.4 µM in the experiment with NCI-H460 lung; 16.6 µM in the experiment on TK-10 renal. The GI50 with SK-OV-3 ovarian is 40.4 µM; with SF-539 CNS, 2.38 µM and 10.4 µM; with HCT-15 colon, 11.8 µM. Further, the TGI with ACHN renal came to 58.6 µM; in the experiment with UACC-257 melanoma, 91.3 µM; with OVCAR-8 ovarian, 41.5 µM; in the experiment on OVCAR-3 ovarian, 39.1 µM; in the experiment with NCI-H460 lung, 37.7 µM; in the experiment on TK-10 renal, 31.9 µM. Besides, the TGI in the experiment on SK-OV-3 ovarian was more than 100 µM; with SF-539 CNS, 33.4 µM; with HCT-15 colon it was 29.3 µM.
With `CC#Cc1ccc(-c2ccccc2)s1`, the TGI in the experiment with ACHN renal, in the experiment with UACC-257 melanoma, in the experiment on PC-3 prostate, in the experiment with OVCAR-8 ovarian, with OVCAR-3 ovarian and in the experiment on NCI-H460 lung was more than 100 µM throughout. The TGI with TK-10 renal, with SF-539 CNS and with HCT-15 colon was more than 100 µM in each case.
Turning to `O=C(/C=C/c1c(O)ccc2ccccc12)c1ccc([N+](=O)[O-])cc1`, the TGI in the experiment with ACHN renal is 54 µM; with UACC-257 melanoma, 74 µM; with OVCAR-8 ovarian, more than 61.6 µM; with OVCAR-3 ovarian it was 39.8 µM; in the experiment with NCI-H460 lung, more than 100 µM; with TK-10 renal, more than 96.4 µM. The TGI in the experiment with SK-OV-3 ovarian is more than 100 µM; with SF-539 CNS, more than 90.8 µM; in the experiment on HCT-15 colon, more than 66.8 µM.
In the case of `COc1c(CC(C)=O)ccc2c1C(=O)c1ccc(C=O)c(OC(C)=O)c1C2=O`, the TGI in the experiment with ACHN renal worked out at 51.3 µM; with UACC-257 melanoma, 28.3 µM; with OVCAR-8 ovarian, 97.3 µM; with OVCAR-3 ovarian, 35.3 µM; in the experiment on NCI-H460 lung, 63.2 µM; with TK-10 renal, 75.1 µM. The results for the TGI in the experiment with SK-OV-3 ovarian, with SF-539 CNS and with HCT-15 colon were more than 100 µM, 20.8 µM and 29.5 µM, respectively.
With `CN1C(=O)C(=O)N2c3ccc(Cl)cc3C3(c4ccccc4)N=CC12O3` (stereo not given), the TGI turned out to be 17.7 µM with ACHN renal; 19 µM with UACC-257 melanoma; 12.8 µM in the experiment on OVCAR-8 ovarian; 14.8 µM with OVCAR-3 ovarian; 25.8 µM in the experiment with NCI-H460 lung; 18.1 µM with TK-10 renal. The TGI was 21.7 µM in the experiment with SK-OV-3 ovarian, 14.6 µM in the experiment on SF-539 CNS and 13.3 µM in the experiment with HCT-15 colon.
For `Cc1ccc(-c2nc(N3CCNCC3)c3oc(-c4ccc(C)cc4)nc3n2)cc1`, the GI50 in the experiment on ACHN renal was 2.23 µM; in the experiment with UACC-257 melanoma it was more than 45.7 µM; in the experiment on PC-3 prostate, 1.77 µM; in the experiment with OVCAR-8 ovarian, 2.13 µM; in the experiment on OVCAR-3 ovarian it was 1.95 µM; in the experiment with NCI-H460 lung, 2.03 µM. Besides, the figures for the GI50 with TK-10 renal, in the experiment on SK-OV-3 ovarian and with HCT-15 colon were 5.43 µM, more than 43.2 µM and 1.72 µM, respectively. The TGI in the experiment on ACHN renal is 4.78 µM; in the experiment on UACC-257 melanoma, more than 65.9 µM; in the experiment with PC-3 prostate it was 3.43 µM; with OVCAR-8 ovarian it was 4.63 µM; with OVCAR-3 ovarian it was 3.87 µM; in the experiment with NCI-H460 lung, 4.41 µM. Besides, the TGI is 14 µM in the experiment with TK-10 renal, more than 59.2 µM in the experiment on SK-OV-3 ovarian and 3.28 µM in the experiment on HCT-15 colon.
In the case of `CN(C)CC1CCCC/C1=N/O` (stereo not given), the TGI with ACHN renal, with UACC-257 melanoma, with OVCAR-8 ovarian, in the experiment with OVCAR-3 ovarian, with NCI-H460 lung and with TK-10 renal was more than 100 µM throughout. In addition, the TGI in the experiment on SK-OV-3 ovarian, in the experiment with SF-539 CNS and in the experiment with HCT-15 colon was more than 100 µM each time.
Turning to `Cc1nnc2ccnn2c1C`, the GI50 with ACHN renal, in the experiment with PC-3 prostate, in the experiment on OVCAR-8 ovarian, in the experiment on OVCAR-3 ovarian, in the experiment on NCI-H460 lung and in the experiment on TK-10 renal was more than 100 µM throughout. Besides, the GI50 in the experiment with SK-OV-3 ovarian and with HCT-15 colon was more than 100 µM each time. For the same compound, the TGI in the experiment with ACHN renal, with PC-3 prostate, in the experiment with OVCAR-8 ovarian, in the experiment on OVCAR-3 ovarian, with NCI-H460 lung and in the experiment with TK-10 renal was more than 100 µM each time. Also, the TGI in the experiment on SK-OV-3 ovarian and with HCT-15 colon was more than 100 µM in each case.
In the case of `O=c1[nH]c(-c2ccccc2)nc2cc(Cl)ccc12`, the TGI with ACHN renal, with UACC-257 melanoma, in the experiment on OVCAR-8 ovarian, in the experiment with OVCAR-3 ovarian, in the experiment on NCI-H460 lung and in the experiment on TK-10 renal was more than 100 µM throughout. The TGI in the experiment with SK-OV-3 ovarian, in the experiment with SF-539 CNS and with HCT-15 colon was more than 100 µM throughout.
Turning to `CCC(C)SC1SCC2C(=O)N(C)C3(CC3C)C(=O)OCC(NC(=O)c3nc4ccccc4cc3O)C(=O)NC(C)C(=O)N(C)C1C(=O)N(C)C1(CC1C)C(=O)OCC(NC(=O)c1nc3ccccc3cc1O)C(=O)NC(C)C(=O)N2C` (stereo not given), the GI50 in the experiment with ACHN renal is 0.000296 µM; with OVCAR-3 ovarian it was 0.000162 µM; in the experiment with TK-10 renal, 0.000654 µM. Further, the TGI in the experiment on ACHN renal worked out at 0.221 µM; in the experiment with UACC-257 melanoma, 0.000219 µM; with PC-3 prostate, 0.0049 µM; in the experiment on OVCAR-8 ovarian, 0.0133 µM; in the experiment with OVCAR-3 ovarian it was 0.00768 µM; in the experiment on NCI-H460 lung, 0.0262 µM. Also, the TGI amounted to 0.000317 µM in the experiment on SF-539 CNS and 0.0538 µM with HCT-15 colon.
